Broadly, the pEC50 is the negative decadic logarithm of the EC50, by convention in mol/L.

These results are taken from patent US6329342A, “Treatment of congestive heart failure with growth hormone secretagogues” (Eli Lilly and Company, priority 2000, dated 2001).

One test has as its system heart failure. Particulars: cited from earlier work.
Another test deals with Pituitary cells. As to the kind of experiment: Pituitary Cell Culture Assay for Growth Hormone Secretion. Particulars: 0.25 h, read-out: GH secretion EC50; heading: GH secretion EC50; rat anterior pituitary cells, 15 min at 37° C.; Examples Part 1. The class given is cell-based, rat (male Sprague-Dawley). The source says: Thirty-two 250 g male Sprague-Dawley rats were used for each assay. The animals were killed by decapitation and anterior pituitaries were removed and placed into ice cold culture medium. The pituitaries were sectioned into eighths and enzymatically digested using trypsin (Sigma Chemical) to weaken connective tissue. Pituitary cells were dispersed by mechanical agitation, collected, pooled and then seeded into 24-well plates (300,000 cells/well). After 4 days of culture, the cells formed an even monolayer. Cells were then washed with medium and challenged to secrete GH by the addition of GH secretagogues to the medium. After 15 min at 37° C., the medium was removed and stored frozen until radioimmunoassays for rat GH were performed. Doses of secretagogue were added in quadruplicate. Compounds disclosed herein are active in the assay as described. Both EC50 and efficacy values were calculated by the 4-parameter logistic equation. Such values were pooled and represented as mean +/- standard error, when appropriate.

pEC50: −log10 of the molar value.

For the molecule `COc1ccccc1OCCNCC(O)COc1cccc2[nH]c3ccccc3c12` (stereo not drawn) [Carvedilol], in the test on heart failure, the mortality in patients result is “dramatic reductions in mortality in patients”.

Take `COC(=O)[C@@H]1CCCN1C(=O)C(c1ccccc1)n1cnc(NC(=O)[C@H](COCc2ccccc2)NC(=O)C(C)(C)N)c1` (stereo partly drawn) [Example 8]: in the test with Pituitary cells, the negative-log EC50 (pEC50) is 5.62.

With `COC(=O)[C@@H]1CCCN1C(=O)C(c1ccccc1)n1cnc(NC(=O)[C@@H](COCc2ccccc2)NC(=O)C(C)(C)N)c1` (stereo partly drawn) [Example 6], in the test with Pituitary cells, the negative logarithm of the EC50 (pEC50) was 5.26.
